In patent publication US6641783B1, “Chromatographic systems with pre-detector eluent switching” (priority 1999, dated 2003):

How the values were obtained:
[1] = Capacity factor of the test solute on an immobilized artificial membrane HPLC column; type: physicochemical; settings: EsterIAM.PC C10/C3 column, 15% acetonitrile in PBS, 1 mL/min
Source text: (§1) The chromatographic process represents a reversible equilibrium of solutes between the mobile phases and the stationary phases. The magnitude of solute retention is a direct result from this equilibrium and is typically expressed by a parameter, the capacity factor, k′=(tr−to)/to where to is the dead time and tr is the retention time of the solutes. The capacity factor is therefore a stoichiometric mass distribution equilibrium of solutes between the mobile phases and the stationary phases, and its determination allows the calculation of various physicochemical values according to pre-determined algorithms.
(§2) Unless otherwise indicated, the experimental data reported in this section was collected under the following conditions: UV detection at 280 nm, UV flow cell: 14 μL, mobile phase: 15% acetonitrile in PBS buffer at 1 mL/min., injection volume: 10 μL (sample amount: 2 μg), eluent switch rate: 1 Hz/column, and one pump per column (one binary pump used at two different pumps).
(§3) Retention time data is reported as capacity factors k′=(tr−to)/to. The most critical preliminary data to obtain, however, was to experimentally determine the minimum peak washing times (volumes) needed to obtain good chromatographic peak characterization with the hardware designed and assembled as shown in FIG. 7. […]

[2] = Capacity factor of the test solute on a C8 HPLC column; type: physicochemical; settings: 15% acetonitrile in PBS, 1 mL/min
Source text: as §1, §2, §3

[3] = Eluent Switch (parallel chromatography), 1 Hz/column
[4] = No Switch (single column chromatography)

**Q.** For `COc1ccc(C)cc1` [4-methylanisole], which “k′ (Capacity factor)” value [1, 3] is on record?
**A.** 7.13

**Q.** And the “k′ (Capacity factor)” value [1, 4]?
**A.** 7.48

**Q.** And the “k′ (Capacity factor)” value [2, 3]?
**A.** 23.71

**Q.** And the “k′ (Capacity factor)” value [2, 4]?
**A.** 23.04
